Measured values reported in patent publication EP2235030B1, “COMPOUND OF THE DISACCHARIDE TYPE COMPOSITION COMPRISING AND METHOD FOR PRODUCING SUCH A COMPOUND” (Université de Picardie Jules Verne, priority 2007, dated 2009).
Marks after values point to notes of the source that are not given here.

How the values were obtained:
[1] = system: chitinases d'insectes et de champignons; conditions: competitive inhibition; cited from earlier work
[2] = system: Myzus persicae (Sulzer); test: Aphid neonates reared on artificial diet supplemented with DPS2: demographic parameters; assay type: in vivo; conditions: for Temps de doublement de la population / Fécondité journalière / Période préreproductive / rm: mean ± SD; for rm: intrinsic rate of population increase
Method: (§1) Deux espèces de pucerons Myzus persicae (Sulzer) et Macrosiphum euphorbiae (Thomas) ont été utilisées pour cette étude. Des adultes ont été isolés et placés dans des cages de PVC sur milieu artificiel pendant une journée afin de synchroniser la descendance. Les néonates, âgés de moins de 24 h sont alors placés sur milieu artificiel contenant des concentrations variant de 0 à 100 µg.mL^-1 du composé DPS2, synthétisé précédemment, selon un protocole décrit par Saguez J, Dubois F, Vincent C, Laberche JC, Sangwan-Norreel BS et Giordanengo P (2006), dans l'article intitulé « Differential aphicidal effects of chitinase inhibitors on the polyphagous homopteran Myzus pensicae (Sulzer) » et publié dans Pest Manag Sci 62: 1150-1154. Plusieurs paramètres démographiques sont relevés quotidiennement afin de déterminer la durée du développement larvaire, la mortalité larvaire et la fécondité et de calculer un paramètre synthétique, le rm (taux intrinsèque d'accroissement des populations) et le temps de doublement des populations. Un minimum de 50 pucerons de chaque espèce est testé par traitement et les individus sont suivis quotidiennement. La taille des pucerons a été mesurée une semaine après le début de l'expérience, sous loupe binoculaire à l'aide d'un oculaire biométrique. Les effets du DPS2 sur la survie larvaire sont analysés par un test du χ^2 de Pearson. Une analyse de variance (ANOVA monofactorielle) a été réalisée avec le logiciel Statistica 5.5 (StatSoft®, Tulsa, Oklahoma, USA) pour tester les effets du DPS2 sur les paramètres démographiques des aphides. Les paramètres significativement altérés sont ensuite analysés par un test de Fisher (PLSD) au seuil de significativité P <0,05.
(§2) Dans les tableaux I, II et III qui suivent, les résultats sont exprimés sous la forme : moyenne ± écart-type. L'effet significatif (*) été testé par une analyse de variance monofactorielle (F) à P<0.05. Les valeurs de même rang suivies par une même lettre indiquent qu'il n'existe pas de différence significative d'après le test du PLSD de Fisher (P<0.05).

[3] = system: Macrosiphum euphorbiae (Thomas); test: Aphid neonates reared on artificial diet supplemented with DPS2: demographic parameters and body size; assay type: in vivo; conditions: for rm: intrinsic rate of population increase
Method: as §1, §2

[4] = system: pucerons M. persicae et M. euphorbiae; test: Aphid artificial diet test, statements made for both aphid species without distinction; assay type: in vivo, Myzus persicae, Macrosiphum euphorbiae
Method: as §1

[5] = DPS2 1 µg.mL^-1 in artificial diet
[6] = DPS2 10 µg.mL^-1 in artificial diet
[7] = DPS2 50 µg.mL^-1 in artificial diet
[8] = DPS2 100 µg.mL^-1 in artificial diet
[9] = DPS2 1 µg.mL^-1 in artificial diet, mean ± SD
[10] = DPS2 10 µg.mL^-1 in artificial diet, mean ± SD
[11] = DPS2 50 µg.mL^-1 in artificial diet, mean ± SD
[12] = DPS2 100 µg.mL^-1 in artificial diet, mean ± SD

## allosamidine
[1]
  activité inhibitrice contre les chitinases: puissante activité inhibitrice

## CCCOC1O[C@H](COS(=O)(=O)O)[C@@H](O[C@@H]2O[C@H](CO)[C@@H](O)[C@H](O)[C@H]2NC(C)=O)[C@H](O)[C@H]1OC(C)=O (stereo partly shown) [DPS2]
[2]; DPS2 1 µg.mL^-1
  Temps de doublement de la population: 5,6 ± 1,8^b jours
  rm: 0,13 ± 0,04^b femelles.femelles^-1 .jours^-1
[2]; [5]
  Fécondité journalière: 0,99 ± 0,27^a larves.femelles-1.jour-1
  Période préreproductive: 11,6 ± 1,9^b jours
[2]; DPS2 10 µg.mL^-1
  Temps de doublement de la population: 5,4 ± 1,2^b b jours
  rm: 0,13 ± 0,03^b femelles.femelles^-1 .jours^-1
[2]; [6]
  Fécondité journalière: 0,91 ± 0,28^b larves.femelles-1.jour-1
  Période préreproductive: 10,9 ± 1,5^a jours
[2]; DPS2 50 µg.mL^-1
  Temps de doublement de la population: 5,9 ± 1,6^b b jours
  rm: 0,12 ± 0,03^bc femelles.femelles^-1 .jours^-1
[2]; [7]
  Fécondité journalière: 0,74 ± 0,24^bc larves.femelles-1.jour-1
  Période préreproductive: 11,1 ± 1,4^a jours
[2]; DPS2 100 µg.mL^-1
  Temps de doublement de la population: 6,5 ± 2,0^a jours
  rm: 0,11 ± 0,03^c femelles.femelles^-1 .jours^-1
[2]; [8]
  Fécondité journalière: 0,65 ± 0,11^bc larves.femelles-1.jour-1
  Période préreproductive: 11,9 ± 1,7^b jours
[2]; increase versus control diet
  durée de la période pré-reproductive (augmentation): augmentée d'environ une journée
[3]; DPS2 1 µg.mL-1 in artificial diet, after 7 days, mean ± SD
  taille des pucerons: 2,2 ± 0,3^a mm
[3]; DPS2 1 µg.mL^-1, mean ± SD
  Temps de doublement de la population: 4,7 ± 1,0^ab jours
  rm: 0,16 ± 0,04^b femelles.femelles^-1.jours^-1
[3]; [9]
  Fécondité journalière: 1,16 ± 0,36^a larves.femelles-1 .jour-1
  Période préreproductive: 11,3 ± 2,1^a jours
[3]; DPS2 10 µg.mL-1 in artificial diet, after 7 days, mean ± SD
  taille des pucerons: 2,1 ± 0,3^b mm
[3]; DPS2 10 µg.mL^-1, mean ± SD
  Temps de doublement de la population: 5,5 ± 1,3^b jours
  rm: 0,13 ± 0,03^b femelles.femelles^-1.jours^-1
[3]; [10]
  Fécondité journalière: 1,06 ± 0,34^a larves.femelles-1 .jour-1
  Période préreproductive: 12,1 ± 1,6^a jours
[3]; DPS2 50 µg.mL-1 in artificial diet, after 7 days, mean ± SD
  taille des pucerons: 1,8 ± 0,2^bc mm
[3]; DPS2 50 µg.mL^-1, mean ± SD
  Temps de doublement de la population: 8,1 ± 1,6^c jours
  rm: 0,09 ± 0,03^c femelles.femelles^-1.jours^-1
[3]; [11]
  Fécondité journalière: 0,81 ± 0,20^b larves.femelles-1 .jour-1
  Période préreproductive: 13,4 ± 1,2^b jours
[3]; DPS2 100 µg.mL-1 in artificial diet, after 7 days, mean ± SD
  taille des pucerons: 1,7 ± 0,2^c mm
[3]; DPS2 100 µg.mL^-1, mean ± SD
  Temps de doublement de la population: 6,5 ± 2,0^c jours
  rm: 0,08 ± 0,03^c femelles.femelles^-1.jours^-1
[3]; [12]
  Fécondité journalière: 0,73 ± 0,22^b larves.femelles-1 .jour-1
  Période préreproductive: 13,5 ± 1,6^b jours
[3]; Macrosiphum euphorbiae, 50 µg.mL^-1, read-out: mortalité larvaire
  mortality at 50 µg/mL: 49%
[3]; Macrosiphum euphorbiae, 100 µg.mL^-1, read-out: mortalité larvaire
  mortality at 100 µg/mL: 53%
[3]; from 10 µg.mL^-1 upwards
  taille des pucerons: réduite
[3]; highest concentrations, 'près de'
  augmentation du temps de doublement des populations: ~4 jours
[3]; increase versus control diet, at the highest concentrations
  durée de la période pré-reproductive (augmentation): deux jours
[4]; DPS2 between 50 and 100 µg.mL^-1, many aphids die before leaving the old cuticle
  processus de mue: affectés
[4]; both aphid species, including the lowest concentration of 1 µg.mL^-1
  taux intrinsèque d'accroissement des populations (rm): réduite
[4]; whatever parameter and aphid species, effects similar at 50 and 100 µg.mL^-1
  concentration dès laquelle les effets aphicides maximum sont obtenus: 50 µg/mL
